Experimental data published in patent publication US9034862B2, “Compositions and methods for the treatment of cancer” (priority 2011, dated 2015).

How the values were obtained:
[1] = system: human lung carcinoma A549; assay: MTT assay, A549; assay type: cell-based
Method: (§3) Solutions of the platinum compounds were freshly prepared in sterile PBS before use and their concentrations quantitated by atomic absorption spectroscopy. Cells were seeded on a 96-well plate (1200 cells per well for cancer cells and 1800 cells per well for the normal lung fibroblasts) in 100 μL RPMI or DMEM media, and incubated for 24 h. […] The cells were then treated with 20 μL of 3-(4,5-dimethylthiazol-2-yl)-2,5-diphenyltetrazolium bromide (MTT) (5 mg/mL in PBS) and incubated for 4 h. The medium was removed, 100 μL of DMSO was added to the cells, and the absorbance of the purple formazan was recorded at 560 nm using a BioTek Synergy HT multi-detection microplate plate reader. Each condition was performed in triplicate and three independent experiments were carried out for each cell line.
(§4) Human prostate carcinoma (PC3) and human cervix carcinoma (HeLa) cells were obtained from the ATCC. The human lung carcinoma cell line A549 was kindly provided by David E. Root (Whitehead Institute for Biomedical Research). Cells were incubated at 37° C. in 5% CO2 and grown in RPMI (PC3) or DMEM (A549 and HeLa) medium supplemented with 10% fetal bovine serum and 1% penicillin/streptomycin. Cells were passaged every 3 to 4 days and restarted from the frozen stock upon reaching passage number 20.
(§5) Solutions of the platinum agents were freshly prepared in sterile PBS before use and the platinum content was quantitated by AAS. Cells were seeded on 96 well plates (1200 cells per well) in 100 μL RPMI or DMEM media\ and incubated for 24 hours. […] The cells were then treated with 20 μL of 3-(4,5-dimethylthiazol-2-yl)-2,5-diphenyltetrazolium bromide (MTT) (5 mg/mL in PBS) and incubated for 4 h. The medium was removed, 100 μL of DMSO were added to the cells, and the absorbance of the purple formazan was recorded at 570 nm using a BioTek Synergy HT multi-detection microplate plate reader. For each cell line, three independent experiments were carried out in triplicate.

[2] = system: human cervix carcinoma HeLa cells; assay: MTT assay, HeLa; assay type: cell-based
Method: as §3, §4, §5

[3] = system: human breast carcinoma MCF7; assay: MTT assay, MCF7; assay type: cell-based
Method: (§1) Human colon carcinoma HT29, human breast carcinoma MCF7, human bone sarcoma U2OS, human prostate carcinoma PC3, and human cervix carcinoma HeLa cells were obtained from the ATCC. A2780/CP70 cisplatin-resistant human ovarian cancer cells were kindly provided by Dr. Stephen B. Howell (Moores UCSD Cancer Center) and the human lung carcinoma cell lines A549 and normal lung fibroblast MRC5 by David E. Root (Whitehead Institute for Biomedical Research). Cells were incubated at 37° C. in 5% CO2 and grown in RPMI (HT29, A2780/CP70, and PC3) or DMEM (A549, MRC5, HeLa, MCF7, and U2OS) medium supplemented with 10% fetal bovine serum and 1% penicillin/streptomycin. Cells were passed every 3 to 4 days and restarted from a frozen stock upon reaching pass number 20.
(§2) Solutions of the platinum compounds were freshly prepared in sterile PBS before use and their concentrations quantitated by atomic absorption spectroscopy. […] The cells were then treated with 20 μL of 3-(4,5-dimethylthiazol-2-yl)-2,5-diphenyltetrazolium bromide (MTT) (5 mg/mL in PBS) and incubated for 4 h. The medium was removed, 100 μL of DMSO was added to the cells, and the absorbance of the purple formazan was recorded at 560 nm using a BioTek Synergy HT multi-detection microplate plate reader. Each condition was performed in triplicate and three independent experiments were carried out for each cell line.

[4] = system: human bone sarcoma U2OS; assay: MTT assay, U2OS; assay type: cell-based
Method: as §1, §2

[5] = system: Human colon carcinoma HT29; assay: MTT assay, HT29; assay type: cell-based
Method: as §1, §2

[6] = system: NTera2; assay: MTT assay, NTera2; assay type: cell-based, human; details: Table 3, NTera2 Testis, 72-h incubation
Method: as §3

[7] = system: human prostate carcinoma PC3; assay: MTT assay, PC3; assay type: cell-based
Method: as §3, §4, §5

[8] = system: normal lung fibroblast MRC5; assay: MTT assay, MRC5; assay type: cell-based, human
Method: as §1, §2

[9] = system: calf thymus DNA; assay: Ethidium bromide DNA-binding competition, Scatchard analysis; parameters: key: competitive (type A); non-competitive (type D); both (type B); No inhibition of ethidium binding is labeled as type C
Text: Using this approach, it is possible to determine whether the inhibition of ethidium binding is competitive (type A), non-competitive (type D), or both (type B). No inhibition of ethidium binding is labeled as type C.

[10] = system: pGLuc plasmid; assay: Platination of pGLuc plasmid; assay type: biochemical
Method: The resulting mixtures were dialyzed (molecular weight cut-off 3.5 kDa) against ddH2O overnight at 4° C. with five changes of ddH2O. The rb values (bound Pt/nucleotide) were determined by UV/Vis and atomic absorption spectroscopy.
In one embodiment, the ratio of bound platinum per plasmid was determined by measuring the Pt concentration by atomic absorption spectroscopy and the DNA concentration by UV/Vis spectroscopy.

[11] = system: GLuc expression in HT29 cells; assay: Transcription assay, globally platinated pGLuc, HT29; assay type: cell-based, human
Method: Transfection of transcription probes into A549 and HT29 cells with the pGLuc plasmid was carried out using liposomal transfecting agents. Determination of expression levels was tested by Luciferase assays monitored by a luminometer (J. Am. Chem. Soc. 2010, 132, 7429-7435). A549 cells were plated in 96-well plates at 2,000 cells/well and HT29 cells were plated in 96-well plates at 6,000 cells/well. After 48 h incubation (at ˜30% confluence), cells were transfected with 50 ng of platinated plasmids in 25 μL Opti-MEM and 0.125 μL Lipofectamine 2000, and subsequently 50 μL of antibiotics-free DMEM supplemented with 10% FBS. After 2 h, the cells were washed with medium and 100 μL of fresh medium was added. The experiment was carried out in quadruplicate.
GLuc activity was monitored using a luminescence plate reader (Synergy 2, BioTek, Winooski, Vt., USA). A 10 μL volume of medium at different time points (12, 24, 36, 48, 60 h) was transferred into opaque white 96-well plates, and 25 μL of GLuc assay solution (10 μM colelenterazine (NanoLight Technologies, Pinetop, Ariz., USA) in 2.5 mM acidified methanol (100 mM HCl), buffer (10 mM Tris-HCl pH 7.8, 1 mM EDTA, 0.6 M NaCl)) was added by the automatic injector of the instrument.
In another embodiment, A549 or HT29 cells were transfected using the platinated transcription probes, and transcription levels were investigated by determining GLuc expression as measured by […] following addition of coelenterazine as a substrate for the exported enzyme. The emission intensities were normalized against unplatinated plasmids as a control. Transcription profiles were obtained by plotting normalized levels of GLuc expression against platination levels (Pt/plasmid ratio) at five different time points. […] An increase in D0 value at different time points represents restoration of transcription.

[12] = system: 5′-dGMP; details: 16 equiv 5′-dGMP, 37° C., PBS pH 7.4
Method: The 1-D ^1H NMR kinetic studies were performed in duplicate as a standard time-arrayed experiment using a variable delayed list. Incremented 1-D spectra were processed in exactly the same way and signals of aromatic amine ligands from platinum compounds were integrated. The relative concentrations of the platinum compound at each time point were calculated from peak integrals. […] Reactions of platinum compounds with 5′-dGMP were performed in NMR tubes containing 2 mM of the platinum compounds and 32 mM (16 equiv) of 5′-dGMP in 10 mM PBS buffer, D2O, pH*7.4 at 37° C.

[13] = system: 60 different human cancer cell lines; assay: NCI-60 DTP Human Tumor Cell Line Screen; details: single dose of 10 μM

With “cis-[Pt(NH3)2(phenanthridine)Cl]NO3 [phenanthriplatin]” as the substance, how does the IC50 ([1]; Table 3, A549 Lung, 72-h incubation) read?
The IC50 was 220 ± 10 nM.

What about the IC50 ([1]; Table 4, A549 human lung carcinoma, 72 h incubation) of the same substance?
The IC50 was 170 ± 2 nM.

And the IC50 ([1]; Table 5, A549, 72-h incubation)?
The IC50 was 220 ± 10 nM.

What about the IC50 ([1]; Table 11 (Example 3), A549 Lung, 72 h) of the same substance?
Its IC50 is 220 ± 6 nM.

And the IC50 ([1]; Table 14, A549, MTT assay)?
Its IC50 is 170 ± 10 nM.

What about the IC50 ([2]; Table 3, HeLa Cervix, 72-h incubation) of the same substance?
The IC50 was 300 ± 20 nM.

What about the IC50 ([2]; Table 5, HeLa, 72-h incubation) of the same substance?
The IC50 was 300 ± 20 nM.

What about the IC50 ([2]; Table 11 (Example 3), HeLa Cervix, 72 h) of the same substance?
The IC50 was 210 ± 35 nM.

And the IC50 ([2]; Table 14, HeLa, MTT assay)?
Its IC50 is 370 ± 40 nM.

What about the IC50 ([3]; Table 3, MCF7 Breast, 72-h incubation) of the same substance?
The IC50 was 940 ± 90 nM.

What about the IC50 ([3]; Table 14, MCF7, MTT assay) of the same substance?
The IC50 was 1140 ± 20 nM.

What about the IC50 ([4]; Table 3, U2OS Bone, 72-h incubation) of the same substance?
The IC50 was 590 ± 40 nM.

What about the IC50 ([4]; Table 5, U2OS, 72-h incubation) of the same substance?
The IC50 was 590 ± 40 nM.

And the IC50 ([4]; Table 14, U2OS, MTT assay)?
Its IC50 is 1050 ± 20 nM.

And the IC50 ([5]; Table 3, HT29 Colorectal, 72-h incubation)?
The IC50 was 2020 ± 40 nM.

And the IC50 ([5]; Table 5, HT29, 72-h incubation)?
The IC50 was 2020 ± 40 nM.

And the IC50 ([5]; Table 14, HT29, MTT assay)?
The IC50 was 2020 ± 40 nM.

What about the IC50 [6] of the same substance?
The IC50 was 35 ± 2 nM.

And the IC50 ([7]; Table 3, PC3 Prostate, 72-h incubation)?
The IC50 was 740 ± 40 nM.

What about the IC50 ([7]; Table 11 (Example 3), PC3 Prostate, 72 h) of the same substance?
Its IC50 is 600 ± 250 nM.

What about the IC50 ([8]; Table 4, MRC5 normal lung fibroblast, 72 h incubation) of the same substance?
The IC50 was 860 ± 60 nM.

And the IC50 ([8]; Table 5, MRC5, 72-h incubation)?
Its IC50 is 860 ± 60 nM.

What about the “type of inhibition of ethidium binding (Scatchard)” value ([9]; 12-h incubation period) of the same substance?
Its value is “type D”.

What about the “type of inhibition of ethidium binding (Scatchard)” value ([9]; 1 min incubation period) of the same substance?
Its value is “type C”.

What about the Pt per plasmid ([10]; rf 0.0008, 16 h at 37° C.) of the same substance?
The Pt per plasmid was 12.12 Pt per plasmid.

And the “rb (bound Pt/nucleotide)” value ([10]; rf 0.0008, 16 h at 37° C.)?
The value was 0.0015.

And the Pt per plasmid ([10]; rf 0.0019, 16 h at 37° C.)?
The Pt per plasmid was 15.42 Pt per plasmid.

And the “rb (bound Pt/nucleotide)” value ([10]; rf 0.0019, 16 h at 37° C.)?
The value was 0.0019.

What about the Pt per plasmid ([10]; rf 0.0029, 16 h at 37° C.) of the same substance?
The Pt per plasmid was 24.28 Pt per plasmid.

What about the “rb (bound Pt/nucleotide)” value ([10]; rf 0.0029, 16 h at 37° C.) of the same substance?
The value was 0.0030.

And the Pt per plasmid ([10]; rf 0.0060, 16 h at 37° C.)?
The Pt per plasmid was 42.80 Pt per plasmid.

What about the “rb (bound Pt/nucleotide)” value ([10]; rf 0.0060, 16 h at 37° C.) of the same substance?
Its value is 0.0053.

And the “D0 (Pt lesions per plasmid required to reduce transcription levels to 37% of control)” value ([11]; HT29, 12 h after transfection)?
The value was 18.9 Pt/plasmid.

And the “D0 (Pt lesions per plasmid required to reduce transcription levels to 37% of control)” value ([11]; HT29, 48 h after transfection)?
Its value is 23.5 Pt/plasmid.

And the “transcription level (normalized against unplatinated plasmid)” value ([11]; HT29, 60 h, Pt/DNA ratio of […] for phenanthriplatin)?
The value was 37.6%.

And the “D0 (Pt lesions per plasmid required to reduce transcription levels to 37% of control)” value ([11]; HT29, 60 h after transfection)?
Its value is 25.0 Pt/plasmid.

And the “pseudo-first order rate constant, reaction with 5′-dGMP” value [12]?
The value was 0.22 h⁻¹.

And the “growth inhibition of the 60 cell lines” value [13]?
Its value is “significant growth inhibition”.
